Assays:
[1] = test system: New Zealand white rabbits; test: local and systemic toxicity after glaucoma filtration surgery; format: in vivo; conditions: rabbit; for Ki67 positive cells in the conjunctival epithelium: day 30; for corneal or conjunctival toxicities, anterior chamber inflammation / local toxicity, conjunctival epithelium: local delivery; for systemic toxicity: local delivery to the conjunctiva
Experimental: (§1) The animals were evaluated twice weekly by a single-masked researcher. Bleb width and length were measured using calipers and intraocular pressures (IOP) were measured using a tonovet (Icare). The primary efficacy end-point was bleb survival as this is indicative of the long-term opening of the filtration pathway created during surgery. Bleb failure was defined as the appearance of a flat, scarred, and vascularised bleb associated with a deep anterior chamber. IOP survival, defined as when the intraocular pressure remains below the baseline IOP measurement, and bleb area were used as secondary end-points. Conjunctival vascularity was graded on a scale of 0 to 3 (0: avascular, 1: normal, 2: hyperaemic, 3: very hyperaemic).
For the Ki67 staining, the sections were dewaxed, rehydrated, and microwaved for 15 minutes in sodium citrate buffer (pH 6) for antigen retrieval. After incubating in 1.6% hydrogen peroxide followed by 10% normal horse serum, the sections were incubated in mouse anti-Ki67 (M7248, Dako) diluted 1 in 25 in 1% BSA/PBS for 1 hour at room temperature. The sections were then incubated in biotinylated horse anti-mouse IgG (Vector) and Avidin-Biotin complex (Vector), developed in DAB (Vector), and counterstained in haematoxylin.
All animals were carefully evaluated for any signs of ocular or systemic toxicity during the study. At day 30, 100 µl of aqueous, 1 ml of vitreous, and 1 ml of venous blood were sampled on the rabbit eyes receiving CCG-222740 or CCG-203971 or vehicle control. The venous blood samples were left to clot for 30 minutes at room temperature, spun at 4000 rpm for 15 minutes at 4 °C, and the serum was collected as the supernatant. Samples were extracted in acetonitrile and the levels of CCG-222740 and CCG-203971 were measured in the aqueous, vitreous, and serum using liquid chromatography/mass spectrometry (LC/MS) in the Metabolomics Core at Michigan State University (East Lansing, MI).

[2] = test system: αSMA-positive human conjunctival fibroblasts; test: alpha smooth muscle actin staining; format: cell-based; conditions: 48 hours, control 24.5%
Experimental: Human conjunctival fibroblasts were plated on 20 mm glass coverslips at 1 × 10^5 cells/well in 6-well plates (Falcon, Fisher Scientific). The next day, the fibroblasts were treated for 48 hours with 10 or 25 μM of CCG-222740 or CCG-203971 or 0.1% DMSO control in DMEM +10% FCS. The samples were fixed in 4% paraformaldehyde for 10 minutes, washed three times in PBS, and permeabilised in PBS 0.2% TX-100 (Triton X-100, Sigma) for 20 minutes. The samples were blocked with 5% fetal calf serum/5% bovine serum albumin (Sigma) for 1 hour. The samples were incubated overnight with the Cy3-labelled alpha smooth muscle actin antibody (1:1000, Sigma) in a wet chamber at 4 °C in the dark. The next day, the samples were washed twice in PBS 0.1% TX-100 and incubated with phalloidin (1:200) and DAPI (1:2000) for 1 hour at room temperature. The samples were then mounted on slides and imaged using an Upright780 Zeiss LSM confocal microscope. The proportion of fibroblasts with prominent αSMA-positive stress fibres was quantified visually from three random fields of view per treatment group in 3 independent experiments.

SRF reporter gene = SRF reporter gene assay in transfected cells; format: cell-based; conditions: human and rabbit conjunctival fibroblasts (3DA.Luc), HEK293 (SRE.L luc), 24 hours
Experimental: Human or rabbit conjunctival fibroblasts were plated at 2 × 10^4 cells/well in 24-well plates (Falcon, Fisher Scientific) for transient transfection. Conjunctival fibroblasts in each well were co-transfected using 2.5 μl Lipofectamine LTX and 0.5 μl Plus reagent (Invitrogen) with 8 ng of SRF reporter plasmid 3DA.Luc, 20 ng of pTK-Renilla-Luc and 172 ng of pEF in OptiMEM (Gibco)[58]. After 2 hours of transfection, fibroblasts were allowed to recover in DMEM +10% FCS overnight.
HEK293T cells were plated at 2 × 10^4 cells/well in 96-well plates (Falcon, Fisher Scientific) and co-transfected using Lipofectamine 2000 (Invitrogen) with 4 ng of SRF reporter plasmid SRE.L. luciferase, and 2 ng of either Gα12Q231L or pcDNA3.1/Zeo(−) diluted in Opti-MEM (Gibco). After 5 hours of transfection, cells were allowed to recover in DMEM +10% FCS overnight.
The next day, the cells were serum starved in DMEM +0.3% FCS and 5, 25, 50, or 100 μM of CCG-222740 or CCG-203971 or 0.1% DMSO control for 24 hours. The cells were then lysed and luciferase levels were measured using a Luciferase Assay System (Promega), according to the manufacturer’s instructions. Each experiment was carried out in triplicates for each condition and the experiment was repeated three times.

[3] = test system: New Zealand white rabbits; test: rabbit glaucoma filtration surgery model of scar tissue formation, clinical end-points; format: in vivo; conditions: for increase in IOP survival: 100 μM subconjunctival, IOP remains below baseline; for increase in long-term success of surgery (bleb survival) compared to vehicle control: 100 μl of 100 μM subconjunctival, day 30; for mean day of bleb failure: CCG compounds 100 μM subconjunctival, MMC 0.2 mg/ml intraoperative, vehicle 14 days; for intraocular pressure (IOP): versus vehicle control or baseline
From the text: 24 female New Zealand white rabbits (2–2.4 kg, 12—14 weeks, Highgate, UK) underwent experimental glaucoma filtration surgery to the left eye under general anaesthesia, [28]. A superonasal fornix-based conjunctival flap was raised behind the limbus and a micro-vitreoretinal blade (20 gauge, 0.90 mm, Surgistar USA) was used to make a partial thickness scleral tunnel to the corneal stroma. A 22 gauge, 25 mm intravenous cannula was passed through the tunnel and the needle was removed once it was visible in the cornea. The cannula was advanced into the mid-pupillary area, trimmed at its scleral edge and fixed to the scleral surface using a 10–0 nylon suture (Alcon, USA). The conjunctival incision was closed using two interrupted 10–0 nylon sutures. In a randomised, prospective, single-masked observer study, the rabbits received either intraoperative 0.2 mg/ml mitomycin-C (MMC) [N = 6], or postoperative subconjunctival injections (100 μl) of 100 μM CCG-203971 [N = 6] or 100 μM CCG-222740 [N = 6] or vehicle control [N = 6] daily for the first nine days followed by twice weekly for three weeks, [33]. CCG-222740 and CCG-203971 were dissolved in 100% DMSO (Sigma, UK) at 10 mM and then diluted to 100 μM with sterile PBS. The same volume of DMSO was diluted with PBS for the vehicle control. For the MMC-treated group, a small corneal light shield sponge was soaked in 1 ml of 0.2 mg/ml MMC and applied over the conjunctiva for 3 minutes, and the area was then thoroughly washed with 50 ml of physiologic balanced salt solution (Alcon Laboratories, Inc., Fort Worth, TX). All the postoperative subconjunctival injections were given at the same site by a single-masked researcher.
as §1

O=C(Nc1ccc(Cl)cc1)C1CCCN(C(=O)c2cccc(-c3ccco3)c2)C1 (centres unmarked) [CCG-203971]
conjunctival vascularity [1]: no abnormalities in conjunctival vascularity
Ki67 positive cells in the conjunctival epithelium [1]: normal Ki67 positive cells
corneal or conjunctival toxicities, anterior chamber inflammation [1]: no signs of corneal or conjunctival toxicities or anterior chamber inflammation
local toxicity, conjunctival epithelium [1]: did not cause any detectable local toxicity
systemic toxicity [1]: none of them showed any signs of systemic toxicity
percentage of αSMA-positive fibroblasts ([2]; 10 μM): 17.0%
percentage of αSMA-positive fibroblasts ([2]; 25 μM): 8.6%
inhibition of baseline SRF reporter activity (SRF reporter gene): ~100%
bleb area compared to vehicle control [3]: no statistically significant differences
increase in IOP survival [3]: 33%
increase in long-term success of surgery (bleb survival) compared to vehicle control [3]: 33%
mean day of bleb failure [3]: 22.5 days
intraocular pressure (IOP) [3]: remained consistently lower than baseline measurements

O=C(Nc1ccc(Cl)cc1)C1CN(C(=O)c2cccc(-c3ccco3)c2)CC(F)(F)C1 (centres unmarked) [CCG-222740]
conjunctival vascularity [1]: no abnormalities in conjunctival vascularity
Ki67 positive cells in the conjunctival epithelium [1]: normal Ki67 positive cells
corneal or conjunctival toxicities, anterior chamber inflammation [1]: no signs of corneal or conjunctival toxicities or anterior chamber inflammation
local toxicity, conjunctival epithelium [1]: did not cause any detectable local toxicity
systemic toxicity [1]: none of them showed any signs of systemic toxicity
percentage of αSMA-positive fibroblasts ([2]; 10 μM): 9.0%
percentage of αSMA-positive fibroblasts ([2]; 25 μM): 2.2%
inhibition of baseline SRF reporter activity (SRF reporter gene): ~100%
bleb area compared to vehicle control [3]: significantly larger bleb area
increase in IOP survival [3]: 67%
increase in long-term success of surgery (bleb survival) compared to vehicle control [3]: 67%
mean day of bleb failure [3]: 28.5 days
intraocular pressure (IOP) [3]: remained consistently lower than baseline measurements
